Assay results published in US8648191B2, “Cyclohexyloxy substituted heterocycles, pharmaceutical compositions containing these compounds and processes for preparing them” (Boehringer Ingelheim International GmbH, priority 2008, dated 2014).
pIC50: −log10 of the molar value.

Molecular target: T1, human EGF-R (Homo sapiens, UniProt P00533)
T1 construct: expressed in transfected cells
Assay: Inhibition of the EGFR-dependent proliferation of a murine haematopoietic cell line expressing human EGF-R, stimulated with EGF
Type: cell-based
Settings: 20 ng/ml human EGF, 48 hours at 37° C., Cell Titer 96 AQueous assay
Procedure: A murine haematopoietic cell line is genetically modified so as to express functional human EGF-R. The proliferation of this cell line can therefore be stimulated by EGF.
The test is carried out as follows:
The cells are cultivated in RPMI/1640 medium. The proliferation is stimulated with 20 ng/ml of human EGF (Promega). To investigate the inhibitory activity of the compounds according to the invention these compounds are dissolved in 100% dimethylsulphoxide (DMSO) and added to the cultures in various dilutions, the maximum DMSO concentration being 1%. The cultures are incubated for 48 hours at 37° C.
In order to determine the inhibitory activity of the compounds according to the invention the relative cell number is measured in O.D. Units using the Cell Titer 96™ AQueous Non-Radioactive Cell Proliferation Assay (Promega). The relative cell number is calculated as a percentage of the control and the concentration of active substance which inhibits the proliferation of the cells by 50% (IC50) is derived therefrom.

T1 sequence (P00533 25-1210): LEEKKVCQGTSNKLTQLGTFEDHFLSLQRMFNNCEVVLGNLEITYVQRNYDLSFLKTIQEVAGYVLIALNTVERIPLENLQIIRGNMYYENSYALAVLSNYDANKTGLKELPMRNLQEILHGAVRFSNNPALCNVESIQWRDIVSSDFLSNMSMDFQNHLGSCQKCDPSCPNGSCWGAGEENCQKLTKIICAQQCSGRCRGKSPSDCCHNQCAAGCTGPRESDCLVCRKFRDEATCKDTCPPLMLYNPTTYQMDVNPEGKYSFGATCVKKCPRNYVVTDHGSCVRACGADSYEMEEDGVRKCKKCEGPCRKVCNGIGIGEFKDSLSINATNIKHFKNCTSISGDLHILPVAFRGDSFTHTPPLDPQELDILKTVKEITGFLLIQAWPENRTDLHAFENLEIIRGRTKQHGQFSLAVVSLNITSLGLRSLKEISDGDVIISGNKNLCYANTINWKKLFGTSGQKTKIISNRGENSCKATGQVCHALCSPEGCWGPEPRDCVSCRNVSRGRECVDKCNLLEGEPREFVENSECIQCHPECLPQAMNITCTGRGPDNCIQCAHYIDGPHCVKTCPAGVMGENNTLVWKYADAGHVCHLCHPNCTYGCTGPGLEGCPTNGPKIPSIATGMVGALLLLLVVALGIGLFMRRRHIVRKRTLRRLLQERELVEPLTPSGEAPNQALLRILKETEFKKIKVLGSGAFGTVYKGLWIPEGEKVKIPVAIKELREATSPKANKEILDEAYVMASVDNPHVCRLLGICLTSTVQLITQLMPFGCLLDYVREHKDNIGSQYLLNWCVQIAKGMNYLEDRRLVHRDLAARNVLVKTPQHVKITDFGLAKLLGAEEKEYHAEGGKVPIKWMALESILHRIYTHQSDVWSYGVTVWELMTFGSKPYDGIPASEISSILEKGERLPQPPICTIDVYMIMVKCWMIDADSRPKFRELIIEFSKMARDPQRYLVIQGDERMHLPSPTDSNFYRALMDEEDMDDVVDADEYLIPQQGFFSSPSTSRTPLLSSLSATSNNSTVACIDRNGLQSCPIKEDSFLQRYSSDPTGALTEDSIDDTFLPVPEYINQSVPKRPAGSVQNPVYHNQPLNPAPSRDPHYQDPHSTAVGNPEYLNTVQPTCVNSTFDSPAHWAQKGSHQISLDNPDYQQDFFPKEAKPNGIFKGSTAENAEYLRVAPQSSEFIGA

SMILES	pIC50
COc1cc2ncnc(Nc3cccc(Cl)c3F)c2cc1O[C@H]1CC[C@@H]([C@@H]2NCCNC2=O)CC1 [1(1a), cis-(S)-3-{4-[4-(3-chloro-2-fluoro-phenylamino)-7-methoxy-quinazolin-6-yloxy]-cyclohexyl}-piperazin-2-one]	8.00
COc1cc2ncnc(Nc3cccc(Cl)c3F)c2cc1OC1CCC([C@H]2C(=O)N(C)CCN2C)CC1 (mixture of isomers) [1(3), cis/trans-(S)-3-{4-[4-(3-chloro-2-fluoro-phenylamino)-7-methoxy-quinazolin-6-yloxy]-cyclohexyl}-1,4-dimethyl-piperazin-2-one]	9.00
COc1cc2ncnc(Nc3cccc(Cl)c3F)c2cc1OC1CCC([C@H]2C(=O)NCCN2C)CC1 (mixture of isomers) [Example 1, cis/trans-(S)-3-{-4-[4-(3-chloro-2-fluoro-phenylamino)-7-methoxy-quinazolin-6-yloxy]-cyclohexyl}-4-methyl-piperazin-2-one]	9.00
COc1cc2ncnc(Nc3cccc(Cl)c3F)c2cc1O[C@H]1CC[C@H]([C@@H]2NCCN(C)C2=O)CC1 [1(2), trans-(S)-3-{4-[4-(3-chloro-2-fluoro-phenylamino)-7-methoxy-quinazolin-6-yloxy]-cyclohexyl}-1-methyl-piperazin-2-one]	9.00

Next, values leading:

pIC50	SMILES
8.85	COc1cc2ncnc(Nc3cccc(Cl)c3F)c2cc1O[C@H]1CC[C@H]([C@@H]2NCCNC2=O)CC1 [1(1b), trans-(S)-3-{4-[4-(3-chloro-2-fluoro-phenylamino)-7-methoxy-quinazolin-6-yloxy]-cyclohexyl}-piperazin-2-one]
8.80	COc1cc2ncnc(Nc3cccc(Cl)c3F)c2cc1O[C@H]1CC[C@H]([C@H]2NCCNC2=O)CC1 [1(5), trans-(R)-3-{4-[4-(3-chloro-2-fluoro-phenylamino)-7-methoxy-quinazolin-6-yloxy]-cyclohexyl}-piperazin-2-one]
7.90	COc1cc2ncnc(Nc3cccc(Cl)c3F)c2cc1O[C@H]1CC[C@@H]([C@H]2NCCNC2=O)CC1 [1(4), cis-(R)-3-{4-[4-(3-chloro-2-fluoro-phenylamino)-7-methoxy-quinazolin-6-yloxy]-cyclohexyl}-piperazin-2-one]
